From US20240270744A1 (Hoffmann-La Roche Inc., priority 2021, published 2024)

Assays:
[1] = target: human GABAA α1β2γ1 receptor (Homo sapiens (Human), UniProt P14867+Q8N1C3); assay: Radioligand binding assay, competition for [3H]RO7239181, γ1-containing GABAA subtypes; details: Table 1; [3H]RO7239181 displacement, membranes from HEK293F cells, mean of two determinations
[2] = target: h-GABA-A α2β2γ1 (Homo sapiens (Human), UniProt P47869+Q8N1C3); assay: Two-electrode voltage clamp electrophysiology in Xenopus oocytes expressing GABAA receptors; format: cell-based; details: Table 2; for Efficacy (GABA) %: % modulation of GABA EC20 = 100*(Fold increase-1), compound at 30-fold Ki; for Fold increase h-GABA-A α2β2γ1 oocyte @ 30-fold Ki: GABA EC20, test compound at approx. 30-fold its Ki α2β2γ1, Xenopus oocytes, -80 mV
Experimental: Xenopus laevis oocytes at maturation stages V-VI were used for the expression of cloned mRNA encoding GABAA receptor subunits. Oocytes ready for RNA micro-injection were bought from Ecocyte, Castrop-Rauxel, Germany and stored in modified Barth's medium (composition in mM: NaCl 88, KCl 1, NaHCO3 2.4, HEPES 10, MgSO4 0.82, CaNO3 0.33, CaCl2 0.33, pH=7.5) at 20° C. until the experiment.
Oocytes were plated in 96-well plates for microinjection using the Roboinject automated instrument (MultiChannelSystems, Reutlingen, Germany). Approximately 50 nL of an aqueous solution containing the RNA transcripts for the subunits of the desired GABAA receptor subtype was injected into each oocyte. […] Oocytes were kept in modified Barth's medium (composition in mM: NaCl 88, KCl 1, NaHCO3 […], HEPES 10, MgSO4 0.82, CaNO3 0.33, CaCl2 0.33, pH=7.5) at 20° C. until the experiment.
Electrophysiological experiments were performed using the Roboocyte instrument (MultiChannelSystems, Reutlingen, Germany) on days 3 to 5 after the micro-injection of mRNA. During the experiment the oocytes were constantly superfused by a solution containing (in mM) NaCl 90, KCl 1, HEPES 5, MgCl2 1, CaCl2 1 (pH 7.4). Oocytes were impaled by two glass microelectrodes (resistance: […]) which were filled with a solution containing KCl 1M+K-acetate 1.5 M and voltage-clamped to −80 mV. The recordings were performed at room temperature using the Roboocyte two-electrode voltage clamp system (Multichannelsystem). After an initial equilibration period of 1.5 min GABA was added for 1.5 min at a concentration evoking approximately 20% of a maximal current response (EC20). After another rest interval of 2.5 min GABA was again added evoking a response of similar amplitude and shape. […] Current traces were recorded at a digitization rate of 10 Hz during and shortly before and after the GABA application.
Each compound and concentration was tested on at least 3 oocytes. Different oocytes were used for different compound concentrations.
For the analysis, the digitized current traces of the first and second GABA response were superimposed and, if necessary, rescaled to equal maximal amplitudes. The ratio between the two responses during the time interval of test compound application was calculated point by point. The extremum of the resulting “ratio trace” was taken as the efficacy (“Fold increase”) of the compound expressed as “% modulation of GABA EC20” (100*(Fold increase−1)).

Row | SMILES | Ki [1] [nM] | Efficacy (GABA) % [2] [%] | Fold increase h-GABA-A α2β2γ1 oocyte @ 30-fold Ki [2]
1 | C[C@@H]1N=C(c2c(F)cccc2F)c2c(cnc(C(F)(F)F)c2Cl)-n2nc(C(=O)NC[C@@H](C)O)nc21 [Example 16, (7S)-11-chloro-9-(2,6-difluorophenyl)-N-[(2R)-2-hydroxypropyl]-7-methyl-12-(trifluoromethyl)-2,3,5,8,13-pentazatricyclo[8.4.0.02,6]tetradeca-1(10),3,5,8,11,13-hexaene-4-carboxamide] | 157 | 166 | 2.66
2 | Cc1nnc2n1-c1cnc(C(F)(F)F)c(Cl)c1C(c1c(F)cccc1Cl)=N[C@H]2C [Example 17, (7S)-11-chloro-9-(2-chloro-6-fluoro-phenyl)-3,7-dimethyl-12-(trifluoromethyl)-2,4,5,8,13-pentazatricyclo[8.4.0.02,6]tetradeca-1(10),3,5,8,11,13-hexaene] | 34.4 | 91 | 1.91
3 | C[C@@H]1N=C(c2c(F)cccc2F)c2c(cnc(C(F)(F)F)c2Cl)-n2cc(C(=O)NCCO)nc21 [Example 19, (7S)-11-chloro-9-(2,6-difluorophenyl)-N-(2-hydroxyethyl)-7-methyl-12-(trifluoromethyl)-2,5,8,13-tetrazatricyclo[8.4.0.02,6]tetradeca-1(10),3,5,8,11,13-hexaene-4-carboxamide] | 48.9 | 170 | 2.70
